Measured values taken from patent publication US8614327B2 (Vertex Pharmaceuticals Incorporated, priority 2004, dated 2013).

Target: T1, ΔF508-CFTR (Homo sapiens, UniProt P13569, DEL508-508)
T1 construct: expressed in transfected cells
Experiment: Membrane potential optical (FRET/VIPR) assay, identification of potentiator compounds
Format: cell-based
Conditions: Table 3, assay not given; for % Activity: relative efficacy
Procedure, shortened: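 NIH3T3 mouse fibroblasts stably expressing ΔF508-CFTR, temperature-corrected 24 h at 27° C., read on VIPR by FRET between CC2-DMPE and DiSBAC2(3). Potentiators identified in a double-addition format, first adding chloride-free (gluconate) medium with or without compound.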

T1 sequence (P13569 with tags, fused parts or gaps DEL508-508): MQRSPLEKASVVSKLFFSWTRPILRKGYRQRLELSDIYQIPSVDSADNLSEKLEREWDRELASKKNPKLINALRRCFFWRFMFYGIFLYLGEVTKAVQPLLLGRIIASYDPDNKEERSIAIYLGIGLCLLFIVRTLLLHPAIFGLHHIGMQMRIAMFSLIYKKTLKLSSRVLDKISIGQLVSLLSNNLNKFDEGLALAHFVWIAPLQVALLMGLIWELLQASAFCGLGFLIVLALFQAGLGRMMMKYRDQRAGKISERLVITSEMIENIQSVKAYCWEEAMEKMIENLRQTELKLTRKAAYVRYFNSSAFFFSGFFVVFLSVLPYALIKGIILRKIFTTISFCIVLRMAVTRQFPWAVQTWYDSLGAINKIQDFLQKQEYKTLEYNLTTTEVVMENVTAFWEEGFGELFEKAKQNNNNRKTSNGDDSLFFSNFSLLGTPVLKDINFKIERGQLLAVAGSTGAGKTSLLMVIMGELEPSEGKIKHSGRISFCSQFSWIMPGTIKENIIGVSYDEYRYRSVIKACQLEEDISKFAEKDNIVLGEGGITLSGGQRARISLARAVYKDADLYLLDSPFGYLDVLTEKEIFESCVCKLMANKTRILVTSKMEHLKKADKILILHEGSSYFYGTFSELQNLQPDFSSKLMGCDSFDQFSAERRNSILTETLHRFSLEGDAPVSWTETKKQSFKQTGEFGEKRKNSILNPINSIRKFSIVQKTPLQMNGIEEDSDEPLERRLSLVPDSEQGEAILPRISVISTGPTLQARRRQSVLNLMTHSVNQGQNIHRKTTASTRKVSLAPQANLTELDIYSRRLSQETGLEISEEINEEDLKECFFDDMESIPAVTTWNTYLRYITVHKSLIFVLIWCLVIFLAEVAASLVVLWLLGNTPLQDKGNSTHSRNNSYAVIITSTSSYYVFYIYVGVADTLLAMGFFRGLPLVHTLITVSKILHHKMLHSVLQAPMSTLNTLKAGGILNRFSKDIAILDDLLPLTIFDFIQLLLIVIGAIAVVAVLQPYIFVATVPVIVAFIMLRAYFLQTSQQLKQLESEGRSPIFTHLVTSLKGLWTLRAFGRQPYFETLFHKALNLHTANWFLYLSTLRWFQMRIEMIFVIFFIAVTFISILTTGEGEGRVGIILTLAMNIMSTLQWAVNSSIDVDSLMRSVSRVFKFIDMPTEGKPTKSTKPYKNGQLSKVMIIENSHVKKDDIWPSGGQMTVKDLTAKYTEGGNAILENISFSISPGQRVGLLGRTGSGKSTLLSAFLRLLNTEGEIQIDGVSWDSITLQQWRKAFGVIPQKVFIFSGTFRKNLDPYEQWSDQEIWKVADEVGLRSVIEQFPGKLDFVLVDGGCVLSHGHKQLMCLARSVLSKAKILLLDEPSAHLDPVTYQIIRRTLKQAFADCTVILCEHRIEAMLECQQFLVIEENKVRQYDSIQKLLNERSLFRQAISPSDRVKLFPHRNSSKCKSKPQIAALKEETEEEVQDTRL

| Structure (SMILES) | EC50 | % Activity |
| --- | --- | --- |
| CCOc1ccccc1-c1cc2cc[nH]c2cc1NC(=O)c1c[nH]c2ccccc2c1=O [Compound 327, N-[5-(2-ethoxyphenyl)-1H-indol-6-yl]-4-oxo-1H-quinoline-3-carboxamide] | < 10 µM | ++ (between 25% to 100%) |
| CC(=O)c1cccc(NC(=O)c2c[nH]c3ccccc3c2=O)c1 [Compound 328, N-(3-acetylphenyl)-4-oxo-1H-quinoline-3-carboxamide] | 25 to 60 µM | + (<25%) |
| Cc1ccccc1-c1nc2cc(NC(=O)c3c[nH]c4ccccc4c3=O)ccc2o1 [Compound 329, N-[2-(o-tolyl)benzooxazol-5-yl]-4-oxo-1H-quinoline-3-carboxamide] | 10 to 25 µM | ++ (between 25% to 100%) |
| O=C(Nc1ccccc1Cl)c1c[nH]c2ccccc2c1=O [Compound 330, N-(2-chlorophenyl)-4-oxo-1H-quinoline-3-carboxamide] | < 10 µM | ++ (between 25% to 100%) |
| NC(=O)c1ccccc1NC(=O)c1c[nH]c2ccccc2c1=O [Compound 331, N-(2-carbamoylphenyl)-4-oxo-1H-quinoline-3-carboxamide] | 25 to 60 µM | + (<25%) |
| C#Cc1ccc(NC(=O)c2c[nH]c3ccccc3c2=O)cc1 [Compound 332, N-(4-ethynylphenyl)-4-oxo-1H-quinoline-3-carboxamide] | < 10 µM | ++ (between 25% to 100%) |
| N#CCc1ccc(-c2ccccc2NC(=O)c2c[nH]c3ccccc3c2=O)cc1 [Compound 333, N-[2-[4-(cyanomethyl)phenyl]phenyl]-4-oxo-1H-quinoline-3-carboxamide] | – | ++ (between 25% to 100%) |
| CC(=O)N1CCC2(CCN(C(=O)OC(C)(C)C)CC2)c2ccc(NC(=O)c3c[nH]c4ccccc4c3=O)cc21 [Compound 334, 7′-[(4-oxo-1H-quinolin-3-ylcarbonyl)amino]-spiro[piperidine-4,4′(1′H)-1-acetyl-quinoline], 2′,3′-dihydro-carboxylic acid tert-butyl ester] | 10 to 25 µM | ++ (between 25% to 100%) |
| Cc1ccc(C(N)=O)c(NC(=O)c2c[nH]c3ccccc3c2=O)c1 [Compound 335, N-(2-carbamoyl-5-methyl-phenyl)-4-oxo-1H-quinoline-3-carboxamide] | 25 to 60 µM | + (<25%) |
| CCCCc1ccccc1NC(=O)c1c[nH]c2ccccc2c1=O [Compound 336, N-(2-butylphenyl)-4-oxo-1H-quinoline-3-carboxamide] | < 10 µM | ++ (between 25% to 100%) |
| CN(C(=O)c1c[nH]c2ccccc2c1=O)c1cc(O)c(C(C)(C)C)cc1C(C)(C)C [Compound 337, N-(5-hydroxy-2,4-ditert-butyl-phenyl)-N-methyl-4-oxo-1H-quinoline-3-carboxamide] | < 10 µM | ++ (between 25% to 100%) |
| Cc1c[nH]c2cccc(NC(=O)c3c[nH]c4ccccc4c3=O)c12 [Compound 338, N-(3-methyl-1H-indol-4-yl)-4-oxo-1H-quinoline-3-carboxamide] | 10 to 25 µM | ++ (between 25% to 100%) |
| N#Cc1c[nH]c2cc(NC(=O)c3c[nH]c4ccccc4c3=O)ccc12 [Compound 339, N-(3-cyano-1H-indol-6-yl)-4-oxo-1H-quinoline-3-carboxamide] | < 10 µM | ++ (between 25% to 100%) |
| CCCc1ccc(NC(=O)c2c[nH]c3ccccc3c2=O)cc1NS(C)(=O)=O [Compound 340, N-(3-methylsulfonylamino-4-propyl-phenyl)-4-oxo-1H-quinoline-3-carboxamide] | < 10 µM | ++ (between 25% to 100%) |
| CC(C)(C)COC(=O)NCC(C)(C)c1ccc(NC(=O)c2c[nH]c3ccccc3c2=O)cc1 [Compound 341, [2-methyl-2-[4-[(4-oxo-1H-quinolin-3-yl)carbonylamino]phenyl]-propyl]aminoformic acid neopentyl ester] | < 10 µM | ++ (between 25% to 100%) |
| CC(C)c1ccc(-c2cc3cc[nH]c3cc2NC(=O)c2c[nH]c3ccccc3c2=O)cc1 [Compound 342, N-[5-(4-isopropylphenyl)-1H-indol-6-yl]-4-oxo-1H-quinoline-3-carboxamide] | < 10 µM | ++ (between 25% to 100%) |
| CC(C)CNC(=O)c1cc2cc[nH]c2cc1NC(=O)c1c[nH]c2ccccc2c1=O [Compound 343, N-[5-(Isobutylcarbamoyl)-1H-indol-6-yl]-4-oxo-1H-quinoline-3-carboxamide] | 10 to 25 µM | ++ (between 25% to 100%) |
| CCOc1ccccc1-c1ccccc1NC(=O)c1c[nH]c2ccccc2c1=O [Compound 344, N-[2-(2-ethoxyphenyl)phenyl]-4-oxo-1H-quinoline-3-carboxamide] | – | ++ (between 25% to 100%) |
| O=C(Nc1ccc2cc[nH]c2c1)c1cnc2ccc(F)cc2c1O [Compound 345, 6-fluoro-4-hydroxy-N-(1H-indol-6-yl)quinoline-3-carboxamide] | < 10 µM | ++ (between 25% to 100%) |
| O=C(Nc1ccccc1)c1c[nH]c2cc(C(F)(F)F)ccc2c1=O [Compound 346, 4-oxo-N-phenyl-7-(trifluoromethyl)-1H-quinoline-3-carboxamide] | < 10 µM | ++ (between 25% to 100%) |
| CN(C)CCNC(=O)c1ccc(-c2cc3cc[nH]c3cc2NC(=O)c2c[nH]c3ccccc3c2=O)cc1 [Compound 347, N-[5-[4-(2-dimethylaminoethylcarbamoyl)phenyl]-1H-indol-6-yl]-4-oxo-1H-quinoline-3-carboxamide] | 10 to 25 µM | ++ (between 25% to 100%) |
| CCOc1ccc(-c2ccccc2NC(=O)c2c[nH]c3ccccc3c2=O)cc1 [Compound 348, N-[2-(4-ethoxyphenyl)phenyl]-4-oxo-1H-quinoline-3-carboxamide] | < 10 µM | ++ (between 25% to 100%) |
| O=C(Nc1cccc2ccccc12)c1c[nH]c2ccccc2c1=O [Compound 350, N-(1-naphthyl)-4-oxo-1H-quinoline-3-carboxamide] | < 10 µM | ++ (between 25% to 100%) |
| CCc1cc2cc[nH]c2cc1NC(=O)c1c[nH]c2ccccc2c1=O [Compound 351, N-(5-ethyl-1H-indol-6-yl)-4-oxo-1H-quinoline-3-carboxamide] | < 10 µM | ++ (between 25% to 100%) |
| CC(C)(C)OC(=O)NCCc1c[nH]c2cc(NC(=O)c3c[nH]c4ccccc4c3=O)ccc12 [Compound 352, 2-[6-[(4-oxo-1H-quinolin-3-yl)carbonylamino]-1H-indol-3-yl]ethylaminoformic acid tert-butyl ester] | < 10 µM | ++ (between 25% to 100%) |
| CC(C)(C)OC(=O)Nc1ccc(C(C)(C)C)c(NC(=O)c2c[nH]c3ccccc3c2=O)c1 [Compound 353, [3-[(4-oxo-1H-quinolin-3-yl)carbonylamino]-4-tert-butyl-phenyl]aminoformic acid tert-butyl ester] | < 10 µM | ++ (between 25% to 100%) |
| CN(Cc1ccccc1NC(=O)c1c[nH]c2ccccc2c1=O)C1CCCCC1 [Compound 354, N-[2-[(cyclohexyl-methyl-amino)methyl]phenyl]-4-oxo-1H-quinoline-3-carboxamide] | < 10 µM | ++ (between 25% to 100%) |
